Reference: patent US20260062422A1 (Halda Therapeutics OpCo, Inc., priority 2022, published 2026)

Legend:
[1] = test system: T-Rex 293 cell line SC3 cells lacking increased expression of androgen receptor protein; assay: Cellular growth inhibition, T-Rex 293 SC3 cells without doxycycline, CellTiter-Glo; assay type: cell-based; conditions: T-Rex 293 SC3 cells not exposed to doxycycline, CellTiter-Glo 2.0
Description: (§1) The following types of cells were prepared for this experiment: (i) a T-Rex 293 cell line having increased expression of androgen receptor protein due to exposure to doxycycline and (ii) a T-Rex 293 cell line lacking increased expression of androgen receptor protein. Ability of the test compounds to inhibit proliferation of the foregoing cell types was evaluated according to the procedures set forth below.
(§2) The doxycycline-inducible androgen receptor protein expressing cell line was established using the following protocol: T-Rex 293 cells were purchased from Invitrogen (Cat #R71007) and transfected using Lipofectamine 2000 with the wild-type androgen receptor protein sequence cloned into the pcDNA4/TO vector. Transfected cells were selected using 400 μg/mL Zeocin (Invitrogen Cat #R25001). Following selection, single clones were raised and maintained in Dulbecco's Modified Eagle Medium (DMEM) supplemented with 10% w/w Tetracycline-free fetal bovine serum (FBS) and 250 μg/mL Zeocin. Clones were analyzed for expression of androgen receptor protein in the presence and absence of 10 ng/mL doxycycline (Sigma Cat #D9891), and a single doxycycline-inducible clone (hereinafter “SC3”) was selected for use in downstream assays.
(§3) The SC3 cells were seeded on poly-D-lysine coated, black clear-bottom 384-well plates at 2500/well, in 25 μL Phenol Red Free Dulbecco's Modified Eagle Medium (DMEM) supplemented with 10% w/w charcoal-dextran treated fetal bovine serum (FBS) and 1% w/w pen-strep, with or without 10 ng/mL doxycycline. Pen-Strep is a commercially available mixture of penicillin G and streptomycin, which is used in mammalian cell culture media to prevent bacterial contamination. Phenol Red Free Dulbecco's Modified Eagle Medium (DMEM) supplemented with 10% w/w charcoal-dextran treated fetal bovine serum (FBS) and 1% w/w pen-strep, with or without 10 ng/mL doxycycline is herein referred to as Treatment Medium. Following seeding of cells in the plates, the plates were spun at 300×g for 30 seconds, then equilibrated to room temperature for 30 minutes, and then deposited in a humidified tissue culture incubator maintained at 37° C. with 5% CO2.
(§4) At 24 hours after seeding of the cells, dilutions of test compound were prepared in DMSO and dissolved in Treatment Medium, to achieve a final DMSO concentration of 0.5% w/w, thereby providing the Test Compound Solution. A 25 μL aliquot of the Test Compound Solution was added to cells in the well plates. An equal volume of a solution containing DMSO and Treatment Medium was used as a negative control. Following treatment of cells with Test Compound Solution or said equal volume of a solution containing DMSO and Treatment Medium, the plates were spun at 300×g for 30 seconds, and then left in an incubator for 72 hours. At the end of the treatment duration, cell viability was quantified with CellTiter-Glo 2.0 reagent (Promega Cat #G9243). For this purpose, plates were equilibrated to room temperature for 30 minutes, and then 25 μL of CellTiter-Glo 2.0 reagent was added to cells in the plate wells. Plates were then agitated on a shaker for two minutes at 500 rpm and subsequently incubated at room temperature for 10 minutes. Following incubation, the plates were spun at 3000×g for 30 seconds, then sealed with an optical adhesive cover, and luminescence readings were measured with an EnVision Plate Reader. Data was normalized using zero luminescence for baseline. A four-parameter non-linear regression curve fit was applied to dose-response data in GraphPad Prism data analysis software to determine the half-maximal growth inhibitory concentration (GI50) for each test compound.

[2] = test system: VCaP cells; assay: Cellular growth inhibition assay for VCaP cells, CellTiter-Glo; assay type: cell-based, human; conditions: 72 hours treatment, CellTiter-Glo 2.0
Description: VCaP cells were purchased from American Type Cell Culture (ATCC Cat #CRL2876) and then seeded on poly-D-lysine coated, black clear-bottom 384-well plates at 5000/well in 25 μL Dulbecco's Modified Eagle Medium (DMEM) supplemented with 10% w/w Fetal bovine serum (FBS) and 1% w/w Pen-Strep. Pen-Strep is a commercially available mixture of penicillin G and streptomycin, which is used in mammalian cell culture media to prevent bacterial contamination. Dulbecco's Modified Eagle Medium (DMEM) supplemented with 10% w/w fetal bovine serum (FBS) and 1% w/w Pen-Strep is herein referred to as Treatment Medium. Following seeding of cells in the plates, the plates were spun at 300×g for 30 seconds, then equilibrated to room temperature for 30 minutes, and then deposited in a humidified tissue culture incubator maintained at 37° C. with 5% CO2.
At 24 hours after seeding of the cells, dilutions of test compound were prepared in DMSO and dissolved in Treatment Medium, to achieve a final DMSO concentration of 0.5% w/w, thereby providing the Test Compound Solution. A 25 μL aliquot of the Test Compound Solution was added to cells in the well plates. An equal volume of a solution containing DMSO and Treatment Medium was used as a negative control. Following treatment of cells with Test Compound Solution or said equal volume of a solution containing DMSO and Treatment Medium, the plates were spun at 300×g for 30 seconds, and then left in an incubator for 72 hours.
At the end of the treatment duration, cell viability was quantified with CellTiter-Glo 2.0 reagent (Promega Cat #G9243). For this purpose, plates were equilibrated to room temperature for 30 minutes, and then 25 μL of CellTiter-Glo 2.0 reagent was added to cells in the plate wells. Plates were then agitated on a shaker for two minutes at 500 rpm and subsequently incubated at room temperature for 10 minutes. Following incubation, the plates were spun at 3000×g for 30 seconds, then sealed with an optical adhesive cover, and luminescence readings were measured with an EnVision Plate Reader.
Data was normalized using zero luminescence for baseline. A four-parameter non-linear regression curve fit was applied to dose-response data in GraphPad Prism data analysis software to determine the half-maximal growth inhibitory concentration (GI50) for each test compound.

[3] = test system: T47D cells; assay: Cellular growth inhibition assay for T47D cells, CellTiter-Glo; assay type: cell-based, human; conditions: 72 hours treatment, CellTiter-Glo 2.0 cell viability
Summary of the method: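 Cells are plated at 3000/well and allowed 24 h before treatment. Test compound in medium containing 0.5% DMSO is then added, with DMSO-only wells as negative control, and plates are incubated 72 h at 37 °C. ATP luminescence (CellTiter-Glo 2.0) is then fitted to four parameters to derive GI50.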

[4] = test system: T-Rex 293 cell line SC3 cells having increased expression of androgen receptor protein due to exposure to doxycycline; assay: Cellular growth inhibition, T-Rex 293 SC3 cells with doxycycline (androgen receptor induced), CellTiter-Glo; assay type: cell-based; conditions: 72 h, T-Rex 293 SC3 cells with 10 ng/mL doxycycline (increased androgen receptor expression)
Description: as §1, §2, §3, §4

| GI50 ([2]; Homo sapiens, VCaP, 72 h) [µM] | Structure (SMILES) | GI50 ([1]; 72 h) [µM] | GI50 [4] [µM] | other results |
| --- | --- | --- | --- | --- |
| 0.5 to 1.5 | Cc1sc2c(c1C)C(c1ccc(CC(=O)NCCc3ncc(C(=O)N[C@H]4C(C)(C)[C@H](Oc5ccc(C#N)c(Cl)c5)C4(C)C)cn3)cc1)=N[C@@H](Cc1ncco1)c1nnc(C)n1-2 [Compound I-440] | > 3 |  | GI50 ([3]; Homo sapiens, T47D, 72 h): 1.5 to 3 µM |
|  | Cc1sc2c(c1C)C(c1ccc(CC3CC(OC4CCN(c5ncc(C(=O)N[C@H]6C(C)(C)[C@H](Oc7ccc(C#N)c(Cl)c7)C6(C)C)cn5)CC4)C3)cc1)=N[C@@H](C)c1nnc(C)n1-2 (stereo partly drawn) [Compound I-446] |  |  | GI50 ([1]; 72 hours): > 3 µM; GI50 [2]: 1.5 to 3 µM; GI50 [3]: < 0.5 µM |
|  | Cc1sc2c(c1C)C(c1ccc(N[C@H]3CCN(c4ncc(C(=O)N[C@H]5C(C)(C)[C@H](Oc6ccc(C#N)c(Cl)c6)C5(C)C)cn4)C3)cc1)=NC(Cc1ncco1)c1nnc(C)n1-2 (stereo partly drawn) [Compound I-622] | < 0.5 | < 0.5 |  |
|  | Cc1sc2c(c1C)C(c1ccc(N[C@H]3CC[C@@H](Nc4ncc(C(=O)N[C@H]5C(C)(C)[C@H](Oc6ccc(C#N)c(Cl)c6)C5(C)C)cn4)CC3)cc1)=N[C@@H](Cc1ncco1)c1nnc(C)n1-2 [Compound I-623] | < 0.5 | < 0.5 |  |
|  | Cc1sc2c(c1C)C(c1ccc(N3CC[C@H](Nc4ncc(C(=O)N[C@H]5C(C)(C)[C@H](Oc6ccc(C#N)c(Cl)c6)C5(C)C)cn4)C3)cc1)=N[C@@H](Cc1ncco1)c1nnc(C)n1-2 [Compound I-624] | < 0.5 | < 0.5 |  |
|  | Cc1sc2c(c1C)C(c1ccc(N3CC4(CCN(c5ncc(C(=O)N[C@H]6C(C)(C)[C@H](Oc7ccc(C#N)c(Cl)c7)C6(C)C)cn5)CC4)C3)cc1)=NC(Cc1ncco1)c1nnc(C)n1-2 (stereo partly drawn) [Compound I-625] | > 3 | < 0.5 |  |
|  | Cc1sc2c(c1C)C(c1ccc(N3CCC(C)(Nc4ncc(C(=O)N[C@H]5C(C)(C)[C@H](Oc6ccc(C#N)c(Cl)c6)C5(C)C)cn4)CC3)cc1)=N[C@@H](Cc1ncco1)c1nnc(C)n1-2 [Compound I-626] | > 3 | < 0.5 |  |
|  | Cc1sc2c(c1C)C(c1ccc(NCCC3CCN(c4ncc(C(=O)N[C@H]5C(C)(C)[C@H](Oc6ccc(C#N)c(Cl)c6)C5(C)C)cn4)CC3)cc1)=NC(Cc1ncco1)c1nnc(C)n1-2 (stereo partly drawn) [Compound I-627] | < 0.5 | < 0.5 |  |
|  | Cc1sc2c(c1C)C(c1ccc(N3CC(N4CCN(c5ncc(C(=O)N[C@H]6C(C)(C)[C@H](Oc7ccc(C#N)c(Cl)c7)C6(C)C)cn5)CC4)C3)cc1)=NC(Cc1ncco1)c1nnc(C)n1-2 (stereo partly drawn) [Compound I-628] |  | < 0.5 | GI50 ([1]; 72 hours): > 3 µM |
| < 0.5 | Cc1sc2c(c1C)C(c1ccc(NCC3CC4(C3)CN(c3ncc(C(=O)N[C@H]5C(C)(C)[C@H](Oc6ccc(C#N)c(Cl)c6)C5(C)C)cn3)C4)cc1)=N[C@@H](Cc1ncco1)c1nnc(C)n1-2 [Compound I-660] | < 0.5 |  | GI50 ([3]; Homo sapiens, T47D, 72 h): < 0.5 µM |
| < 0.5 | Cc1sc2c(c1C)C(c1ccc(NCCN3CCN(c4ncc(C(=O)N[C@H]5C(C)(C)[C@H](Oc6ccc(C#N)c(Cl)c6)C5(C)C)cn4)CC3)cc1)=NC(Cc1ncco1)c1nnc(C)n1-2 (stereo partly drawn) [Compound I-661] | < 0.5 |  |  |
| < 0.5 | Cc1sc2c(c1C)C(c1ccc(N3CCC[C@@H](CNc4ncc(C(=O)N[C@H]5C(C)(C)[C@H](Oc6ccc(C#N)c(Cl)c6)C5(C)C)cn4)C3)cc1)=NC(Cc1ncco1)c1nnc(C)n1-2 (stereo partly drawn) [Compound I-662] | 0.5 to 1.5 |  |  |
| < 0.5 | Cc1sc2c(c1C)C(c1ccc(N[C@H]3CC[C@H](Nc4ncc(C(=O)N[C@H]5C(C)(C)[C@H](Oc6ccc(C#N)c(Cl)c6)C5(C)C)cn4)CC3)cc1)=N[C@@H](Cc1ncco1)c1nnc(C)n1-2 [Compound I-663] | < 0.5 |  |  |
| < 0.5 | Cc1sc2c(c1C)C(c1ccc(N3C[C@H](F)C[C@@H](Nc4ncc(C(=O)N[C@H]5C(C)(C)[C@H](Oc6ccc(C#N)c(Cl)c6)C5(C)C)cn4)C3)cc1)=NC(Cc1ncco1)c1nnc(C)n1-2 (stereo partly drawn) [Compound I-664] | < 0.5 |  |  |
| < 0.5 | Cc1sc2c(c1C)C(c1ccc(N3C[C@H]4C[C@@H]3CN4c3ncc(C(=O)N[C@H]4C(C)(C)[C@H](Oc5ccc(C#N)c(Cl)c5)C4(C)C)cn3)cc1)=NC(Cc1ncco1)c1nnc(C)n1-2 (stereo partly drawn) [Compound I-665] | < 0.5 |  |  |
